Target: T1, Tissue alpha-L-fucosidase (Bos taurus, UniProt Q2KIM0)
T1 sequence (Q2KIM0 whole entry): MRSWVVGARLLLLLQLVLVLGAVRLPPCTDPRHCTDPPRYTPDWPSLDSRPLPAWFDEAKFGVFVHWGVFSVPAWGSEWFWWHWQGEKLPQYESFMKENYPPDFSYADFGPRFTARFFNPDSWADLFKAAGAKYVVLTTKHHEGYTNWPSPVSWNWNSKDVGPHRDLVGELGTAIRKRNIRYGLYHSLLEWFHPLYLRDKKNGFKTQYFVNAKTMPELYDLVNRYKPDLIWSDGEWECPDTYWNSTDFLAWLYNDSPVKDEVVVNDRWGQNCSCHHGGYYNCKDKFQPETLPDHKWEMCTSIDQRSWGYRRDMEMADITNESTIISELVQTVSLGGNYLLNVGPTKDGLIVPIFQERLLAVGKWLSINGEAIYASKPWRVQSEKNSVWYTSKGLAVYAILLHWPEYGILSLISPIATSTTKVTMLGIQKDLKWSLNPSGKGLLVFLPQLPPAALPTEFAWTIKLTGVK
Assay: Inhibition of bovine alpha-L-fucosidase

| Compound | Ki | IC50 |
| --- | --- | --- |
| C[C@H]1N[C@@H](S(=O)(=O)O)[C@H](O)[C@@H](O)[C@H]1O | 13000 nM | – |
| C[C@H]1NC(O)[C@H](O)[C@@H](O)[C@H]1O (some centres not stated) | 3000 nM | – |
| C[C@H]1NC[C@H](O)[C@@H](O)[C@H]1O | 660000 nM | – |
| C[C@@H]1NC(O)[C@@H](O)[C@H](O)[C@@H]1O (some centres not stated) | 1 nM | – |
| C[C@@H]1N[C@H](S(=O)(=O)O)[C@@H](O)[C@H](O)[C@@H]1O | 1 nM | – |
| C[C@@H]1NC[C@@H](O)[C@H](O)[C@@H]1O [DEOXYFUCONOJIRIMYCIN] | 3 nM | 5 nM |

— ChEMBL document CHEMBL1138167, “Asymmetric synthesis of the L-fuco-nojirimycin, a nanomolar alpha-L-fucosidase inhibitor” (Bioorg Med Chem Lett, 2006)
